Measurements as given in patent publication US20260258083A1, “T Cell Engager Masking Molecules” (AMGEN INC., priority 2023, published 2026).
Blank lines part the entries; values can stand above or below the substance they belong to. Where no end group is shown, it is not given here. [ ]: non-standard residue; d: D form. pGlu = O=C1CC[C@@H](C(=O)O)N1

Tests used:
[1] = tested on: muCD19 TCE; assay: muCD19 TCE + CD3ε PepPOL, v1 co-administration pilot study, cytokines and CD19+ B cell depletion (Example 6); assay type: in vivo, huCD3ε TCR KI mice; conditions: ≥1000× molar overage with 100 μg/kg muCD19 TCE
Experimental: Example 6: Study muCD19 TCE+CD3ε PepPOL, v1 Co-Administration in huCD3ε TCR KI Mouse Model. 100 ug/kg IV Dose Murine Anti-muCD19 TCE Investigated >2300X
An initial pilot study in huCD3ε TCR KI mice was conducted to establish the desired PD effect with CD3ε PepPol v1. Here, CD3ε PepPol, v1 was co-administered at ≥1000× molar overage (peptide:TCE) with 100 μg/kg muCD19 TCE.

[2] = tested on: FLT3×CD3 TCE (SEQ ID NO: 93); assay: Association kinetics by KinExA (Table 5); assay type: binding; conditions: KinExA, FLT3×CD3 TCE
Sequence of FLT3×CD3 TCE (SEQ ID NO: 93) (as listed by the source): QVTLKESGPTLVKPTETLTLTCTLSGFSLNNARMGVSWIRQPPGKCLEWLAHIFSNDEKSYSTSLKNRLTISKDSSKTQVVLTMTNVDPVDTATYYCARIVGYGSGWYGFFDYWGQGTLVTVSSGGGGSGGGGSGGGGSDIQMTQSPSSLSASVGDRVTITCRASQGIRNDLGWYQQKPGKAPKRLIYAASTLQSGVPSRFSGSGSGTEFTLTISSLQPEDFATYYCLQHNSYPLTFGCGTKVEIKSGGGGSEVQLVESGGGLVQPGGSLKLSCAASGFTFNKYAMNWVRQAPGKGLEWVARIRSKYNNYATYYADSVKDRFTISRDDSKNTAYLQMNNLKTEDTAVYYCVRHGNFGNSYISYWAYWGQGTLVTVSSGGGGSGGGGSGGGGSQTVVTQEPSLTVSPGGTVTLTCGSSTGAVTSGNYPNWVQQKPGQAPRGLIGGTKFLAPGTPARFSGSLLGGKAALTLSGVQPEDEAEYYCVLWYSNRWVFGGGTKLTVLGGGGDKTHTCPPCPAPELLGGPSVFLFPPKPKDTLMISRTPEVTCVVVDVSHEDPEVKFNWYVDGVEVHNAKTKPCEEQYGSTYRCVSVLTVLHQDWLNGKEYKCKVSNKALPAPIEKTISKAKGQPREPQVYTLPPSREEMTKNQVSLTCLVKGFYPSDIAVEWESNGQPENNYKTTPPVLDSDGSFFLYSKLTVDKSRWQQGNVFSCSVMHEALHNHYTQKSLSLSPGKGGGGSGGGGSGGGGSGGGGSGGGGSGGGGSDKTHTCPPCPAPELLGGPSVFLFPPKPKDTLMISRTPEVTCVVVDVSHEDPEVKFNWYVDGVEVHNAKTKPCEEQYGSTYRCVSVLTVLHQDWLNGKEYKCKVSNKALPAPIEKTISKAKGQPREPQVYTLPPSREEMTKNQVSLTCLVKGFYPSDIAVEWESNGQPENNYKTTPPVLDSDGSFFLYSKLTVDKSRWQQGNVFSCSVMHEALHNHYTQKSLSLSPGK
Experimental: • 1. Preparation of NHS-activated sepharose fast-flow beads: • 2. Fast flow sepharose suspension in 100% IPA, washed twice with milliQ H20, mild centrifugation to pool beads in between wash steps. • 3. Equilibrated in 0.15 M NaBO3, pH=8.5 buffer • 4. Added 80 mM PDEA to activate the resin for thiol exchange, 10 mins, r.t. • 5. Equilibrated resin with Hepes Buffered Saline-P (0.01 M HEPES pH 7.4, 0.15 M NaCl, 0.005% v/v Surfactant P2), pH 7.4 binding buffer • 6. Added 30 μg/mL of binding peptide, […] (SEQ ID NO; 297) or pGlu-[…] (SEQ ID NO: 300), reaction for 1 hr to functionalize resin. • 7. Quench with 10 mM L-Cys for 1 hour. • 8. Constant Binding Partner was FLT3×CD3 TCE (SEQ ID NO: 93), MW 105720, 3.2 mg/mL 31.21 uM was diluted to 333 pM and the pGlu-[…] peptide or pGlu-[…]-PEG (Pep-PEG v2) were titrated from 1 uM or 400 nM down to 2.3 pM concentrations relative to effective peptide molarity.
Association Kinetics by KinExA

[3] = 2nd mouse PK study, IV bolus (Example 3); assay type: in vivo; conditions: BL/6 mice, IV bolus 5 mg/kg, plasma
Experimental: Example 3: 2nd Mouse PK Study
A second PK study was conducted in BL/6 mice to evaluate the plasma pharmacokinetics of the masking peptide in 8-arm (octavalent), 40 kDa PEG form. Both CD3ε PepPOL, v1 (40 kDa) and CD3ε PepPOL, v1 (20 kDa) (see Table 6 for sequences) were administered to mice by IV bolus at 5 mg/kg dose level and the results are shown in Fig. XX. […] The terminal elimination half-lives were estimated to be between 90 min and 120 min for the 20 kDa or 40 kDa CD3ε PepPOL, v1 forms, respectively.

[4] = Mouse pharmacokinetic study, IV (Example 2); conditions: BL/6 mice, IV, 0.82 or 8.2 mg/kg, plasma total intact peptide
Experimental: Example 2: Mouse Pharmacokinetic Study to Evaluate In Vivo PK
The 4-arm 20 kDa PepPOL conjugate was dosed by IV administration to BL/6 mice at 0.82 or 8.2 mg/kg dose levels. […] The PK profiles for each peptide were evaluated by quantifying plasma concentrations of total intact peptide material over time (see methods).

[5] = C57BL/6 mice, single dose, non-linear one-phase decay fitting
Excerpt: Example 4: TCE Masking Molecule in PK Mouse Study
To further understand the in vivo behavior of the pyro-Glu containing dimeric p-[…]

[6] = tested on: CD20 TCE; assay: CD20 TCE + CD3ε PepPOL, v2 PK/PD study 157130 (Example 10); assay type: in vivo, cynomolgus monkeys
Experimental: Example 10: Cynomolgus Study CD20 TCE (0.010 mg/kg)+CD3ε PepPOL, v2 (+25× (0.016 mg/kg), +250× (0.16 mg/kg) Co-Administration in Cynomolgus Monkeys
PK/PD study 157130 was an exploratory dose-ranging study conducted in cynomolgus monkeys aimed to establish activity of a ‘high affinity’ CD3ε PepPOL, v2 when co-administered with CD20 TCE. Primary study endpoints included: cytokine release, CD20+ B cell lysis, T cell activation, and clinical chemistry end points typically associated with CRS (e.g., CRP). CD20 TCE was dosed at 10 ug/kg alone, or in combination with CD3ε PepPOL, v2 at 0.016 mg/kg (25× molar excess CD3ε peptide), or 0.160 mg/kg (250× molar excess CD3ε peptide). A summary of the results is described below.
Serum cytokines MCP-1, IL-6, TNFα, IFNγ, and IL-2 were assessed by multiplex sandwich immunoassay at multiple time points from 0-168 hours post dose.

[7] = tested on: CLDN6xCD3 TCE SEQ ID NO 340; assay: SPR assay of immobilized peptides binding with TCE; conditions: immobilized peptide, Kinetic 1:1 Binding
Experimental: (§1) Example 14: SPR Assay of Immobilized Peptides Binding with TCE
(§2) A cytiva CM5 chip was first functionalized with PDEA (2-(2pyridinyldithio)ethaneamine) under standard ((1-ethyl-3-(3-dimethylaminopropyl)carbodiimide)/(N-hydroxysuccinimide) EDC/NHS coupling conditions where the PDEA is dissolved to 20 mM and 1 M NaCl in 0.1 M sodium acetate pH 4.3. Binding peptides were dissolved to 50- or 100-ug/mL respectively in PBST, pH 6.5, and coupling times were optimized to yield the desired surface density.

[8] = biological target: FLT3xCD3 TCE SEQ ID NO 93; assay: SPR assay of immobilized peptides binding with TCE; conditions: immobilized peptide, Kinetic 1:1 Binding
Experimental: as §1, §2

[9] = tested on: CDH3-CD3-MSLN-CD3 TCE (SEQ ID NO 255); assay: SPR assay of immobilized peptides binding with TCE
Sequence of CDH3-CD3-MSLN-CD3 TCE (SEQ ID NO 255) (as listed by the source): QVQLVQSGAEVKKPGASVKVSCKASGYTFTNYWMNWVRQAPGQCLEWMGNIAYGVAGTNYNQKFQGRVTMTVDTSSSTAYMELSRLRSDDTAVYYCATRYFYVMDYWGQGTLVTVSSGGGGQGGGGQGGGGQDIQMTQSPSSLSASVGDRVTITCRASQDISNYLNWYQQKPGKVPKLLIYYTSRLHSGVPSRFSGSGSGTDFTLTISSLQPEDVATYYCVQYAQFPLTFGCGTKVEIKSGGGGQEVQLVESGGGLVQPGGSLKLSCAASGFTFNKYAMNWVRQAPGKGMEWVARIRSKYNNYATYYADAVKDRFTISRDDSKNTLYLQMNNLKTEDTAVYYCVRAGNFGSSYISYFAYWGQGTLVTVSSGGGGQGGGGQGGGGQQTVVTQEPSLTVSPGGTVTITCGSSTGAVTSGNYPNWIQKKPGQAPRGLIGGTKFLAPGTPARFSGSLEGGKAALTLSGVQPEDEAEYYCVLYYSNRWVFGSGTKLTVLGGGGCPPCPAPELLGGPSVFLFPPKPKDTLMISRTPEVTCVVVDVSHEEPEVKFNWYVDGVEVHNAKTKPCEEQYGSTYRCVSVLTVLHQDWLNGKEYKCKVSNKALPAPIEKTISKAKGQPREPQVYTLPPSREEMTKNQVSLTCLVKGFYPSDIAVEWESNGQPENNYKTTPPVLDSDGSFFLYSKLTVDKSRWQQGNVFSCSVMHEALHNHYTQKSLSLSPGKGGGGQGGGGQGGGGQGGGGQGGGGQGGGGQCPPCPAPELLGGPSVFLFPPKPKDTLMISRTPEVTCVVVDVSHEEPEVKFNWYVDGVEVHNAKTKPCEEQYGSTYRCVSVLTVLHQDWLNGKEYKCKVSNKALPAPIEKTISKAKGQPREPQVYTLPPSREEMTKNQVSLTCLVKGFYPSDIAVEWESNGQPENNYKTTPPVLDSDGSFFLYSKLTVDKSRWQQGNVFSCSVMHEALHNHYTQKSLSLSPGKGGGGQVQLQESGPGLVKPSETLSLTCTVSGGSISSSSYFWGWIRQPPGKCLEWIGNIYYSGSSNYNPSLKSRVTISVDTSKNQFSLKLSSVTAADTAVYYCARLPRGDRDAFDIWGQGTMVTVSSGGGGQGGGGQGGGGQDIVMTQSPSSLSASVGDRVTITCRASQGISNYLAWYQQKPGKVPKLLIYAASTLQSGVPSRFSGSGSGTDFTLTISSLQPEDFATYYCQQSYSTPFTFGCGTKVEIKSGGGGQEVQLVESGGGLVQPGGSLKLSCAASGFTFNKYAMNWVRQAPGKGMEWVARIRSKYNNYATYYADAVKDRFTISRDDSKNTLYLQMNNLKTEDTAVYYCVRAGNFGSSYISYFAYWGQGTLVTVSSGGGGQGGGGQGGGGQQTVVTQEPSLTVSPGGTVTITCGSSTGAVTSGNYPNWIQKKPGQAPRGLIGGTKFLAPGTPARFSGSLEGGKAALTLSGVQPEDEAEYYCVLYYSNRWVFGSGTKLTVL
Experimental: as §1, §2

[10] = biological target: DLL3xCD3 TCE SEQ ID NO 104; assay: SPR assay of immobilized peptides binding with TCE; conditions: immobilized peptide, Kinetic 1:1 Binding
Sequence of DLL3xCD3 TCE SEQ ID NO 104 (as listed by the source): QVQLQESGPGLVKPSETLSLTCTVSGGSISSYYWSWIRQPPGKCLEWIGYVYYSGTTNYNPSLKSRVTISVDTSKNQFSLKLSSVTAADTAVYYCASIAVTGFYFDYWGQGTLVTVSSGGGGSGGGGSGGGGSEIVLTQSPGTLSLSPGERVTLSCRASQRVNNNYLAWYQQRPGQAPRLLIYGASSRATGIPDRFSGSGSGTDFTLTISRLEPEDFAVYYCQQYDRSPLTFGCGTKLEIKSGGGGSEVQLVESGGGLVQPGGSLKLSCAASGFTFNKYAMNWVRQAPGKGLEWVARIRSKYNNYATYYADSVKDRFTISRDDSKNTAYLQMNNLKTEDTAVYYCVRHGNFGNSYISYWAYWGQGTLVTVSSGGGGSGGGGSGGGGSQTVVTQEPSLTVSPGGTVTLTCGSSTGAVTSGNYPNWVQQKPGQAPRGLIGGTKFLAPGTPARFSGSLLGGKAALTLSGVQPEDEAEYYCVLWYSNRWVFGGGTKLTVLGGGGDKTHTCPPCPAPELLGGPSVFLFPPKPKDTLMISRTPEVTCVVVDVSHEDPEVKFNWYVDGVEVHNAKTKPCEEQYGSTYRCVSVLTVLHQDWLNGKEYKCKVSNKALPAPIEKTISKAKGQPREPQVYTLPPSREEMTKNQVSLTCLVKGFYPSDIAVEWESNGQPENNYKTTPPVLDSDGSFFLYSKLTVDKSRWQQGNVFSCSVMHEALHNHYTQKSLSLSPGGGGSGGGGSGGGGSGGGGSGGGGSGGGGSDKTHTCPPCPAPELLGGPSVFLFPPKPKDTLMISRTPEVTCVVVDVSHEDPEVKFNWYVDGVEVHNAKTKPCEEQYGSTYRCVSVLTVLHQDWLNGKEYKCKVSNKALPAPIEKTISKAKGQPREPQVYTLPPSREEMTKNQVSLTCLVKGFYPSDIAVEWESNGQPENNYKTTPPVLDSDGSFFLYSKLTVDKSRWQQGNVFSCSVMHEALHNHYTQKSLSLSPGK
Experimental: as §1, §2

[11] = biological target: Steap 1xCD3 TCE SEQ ID NO 373 + 374 + 375; assay: SPR assay of immobilized peptides binding with TCE; conditions: immobilized peptide, Kinetic 1:1 Binding
Sequence of Steap 1xCD3 TCE SEQ ID NO 373 + 374 + 375 (as listed by the source): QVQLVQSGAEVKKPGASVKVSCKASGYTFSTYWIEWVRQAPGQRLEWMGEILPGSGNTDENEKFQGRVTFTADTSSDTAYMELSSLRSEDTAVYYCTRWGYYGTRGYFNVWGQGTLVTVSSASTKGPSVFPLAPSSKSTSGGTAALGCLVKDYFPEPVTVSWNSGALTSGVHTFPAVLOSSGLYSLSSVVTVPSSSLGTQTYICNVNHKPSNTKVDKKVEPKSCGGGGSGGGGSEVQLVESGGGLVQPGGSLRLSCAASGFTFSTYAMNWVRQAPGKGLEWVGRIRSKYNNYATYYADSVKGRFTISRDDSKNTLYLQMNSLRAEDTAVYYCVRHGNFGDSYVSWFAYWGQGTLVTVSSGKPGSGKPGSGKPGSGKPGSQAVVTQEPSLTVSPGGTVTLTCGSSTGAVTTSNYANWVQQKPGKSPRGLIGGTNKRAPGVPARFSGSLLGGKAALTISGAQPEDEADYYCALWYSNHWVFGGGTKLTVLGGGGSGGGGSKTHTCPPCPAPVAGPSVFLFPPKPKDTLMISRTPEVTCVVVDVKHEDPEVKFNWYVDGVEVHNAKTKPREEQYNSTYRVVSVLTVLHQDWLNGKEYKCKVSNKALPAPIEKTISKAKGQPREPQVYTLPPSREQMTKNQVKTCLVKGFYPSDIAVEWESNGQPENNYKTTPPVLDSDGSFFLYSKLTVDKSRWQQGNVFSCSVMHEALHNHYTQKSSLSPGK
Sequence of Steap 1xCD3 TCE SEQ ID NO 373 + 374 + 375 (as listed by the source partner): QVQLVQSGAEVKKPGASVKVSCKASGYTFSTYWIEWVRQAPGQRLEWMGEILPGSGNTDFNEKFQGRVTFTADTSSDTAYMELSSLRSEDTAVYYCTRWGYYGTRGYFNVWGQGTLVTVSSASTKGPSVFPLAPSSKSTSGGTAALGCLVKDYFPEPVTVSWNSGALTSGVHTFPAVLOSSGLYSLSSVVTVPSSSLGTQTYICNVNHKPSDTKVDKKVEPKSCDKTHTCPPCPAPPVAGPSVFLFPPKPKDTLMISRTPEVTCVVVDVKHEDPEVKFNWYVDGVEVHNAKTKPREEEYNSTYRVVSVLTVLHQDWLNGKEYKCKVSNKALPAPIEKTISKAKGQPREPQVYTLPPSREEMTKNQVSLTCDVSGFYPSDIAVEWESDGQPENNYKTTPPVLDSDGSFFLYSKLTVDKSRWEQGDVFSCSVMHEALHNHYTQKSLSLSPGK
Sequence of Steap 1xCD3 TCE SEQ ID NO 373 + 374 + 375 (as listed by the source partner): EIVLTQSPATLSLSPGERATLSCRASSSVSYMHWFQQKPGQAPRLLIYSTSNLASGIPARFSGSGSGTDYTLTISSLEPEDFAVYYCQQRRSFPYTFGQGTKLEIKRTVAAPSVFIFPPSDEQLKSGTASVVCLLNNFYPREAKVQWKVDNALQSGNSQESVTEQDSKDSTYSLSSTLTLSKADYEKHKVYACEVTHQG
Experimental: as §1, §2

[12] = biological target: FLT3xCD3 TCE; assay: SPR solution assay of competition binding with TCE
Experimental: (§3) SPR Solution Assay of Competition Binding with TCE
(§4) As it can be derived from table 6,
(§5) A high affinity SPR ‘capture’ surface was first constructed to facilitate the SPR analysis of pre-equilibrated peptide analyte+TCE solutions. Briefly, a Cytiva CM5 chip was functionalized with PDEA (2-(2-pyridinyldithio)ethaneamine) under standard EDC/NHS coupling conditions where the PDEA is dissolved to 20 mM 2-(2-pyridinyldithio)ethaneamine and 1 M NaCl in 0.1 M sodium acetate pH 4.3, 6 peptide including p[…] (ID 14974, SEQ ID NO 304) were tested:
(§6) Respective peptide was dissolved to between 50 and 100-ug/mL for injection over the activated CM5 surface in PBST, pH 6.5, and coupling times were optimized to yield the desired surface density (~300RU).
(§7) For the binding assessment, Individual binding isotherms were constructed by titrating the respective peptide of interest into a fixed concentration of TCE-containing solution in PBST. At least 4 hrs equilibration time were allotted (r.t.) prior to analysis by SPR. For the analysis, a calibration curve was first constructed of the TCE analyte being assessed. For analysis of the TCE+peptide mixtures, the samples were injected (10 uL/min) over the previously prepared capture surface for 90 seconds, where the SPR response (RU) was recorded at the end of the injection and referenced to the previously prepared standard curve to derive an estimate of the ‘free’ TCE concentration in the presence of peptide analyte. The ‘free’ TCE concentration measured was plotted as a function of log peptide concentration and fit using non-linear regression analysis to a 4 parameter logistic function to derive an IC50.

[13] = biological target: STEAP1xCD3 TCE; assay: SPR solution assay of competition binding with TCE
Experimental: as §3, §4, §5, §6, §7

Substance: (QDGNEEMGKGMEENGDQC)4 - PEG(20 kDa) (also: four copies conjugated to PEG 20 kDa)
PD effect with respect to CD19+ B cell depletion [1]: retained a greater degree of PD effect
impact on cytokine reduction [1]: cytokine reduction can be seen
koff [2]: 0.0047 s⁻¹
terminal elimination half-lives [3]: ~90 min
terminal elimination half-life [4]: ~88 min

Substance: (pE-DGNEEMGKGMEENGDQC)4-PEG(20 kDa) ([pGlu]DGNEEMGKGMEENGDQC; also: four copies attached to PEG(20 kDa), site not given here)
koff [2]: 0.00195 s⁻¹
elimination half-lives [5]: ~102 min
IL-6 serum concentration ([6]; 0.010 mg/kg CD20 TCE + 0.016 mg/kg (25×)): moderate increase in IL-6 serum concentration for n=1 of 2 animals
IL-6 stimulation ([6]; 0.010 mg/kg CD20 TCE + 0.16 mg/kg (250×)): No IL-6 stimulation was observed
difference in CD20 TCE cytolytic activity vs CD20 TCE control group ([6]; 0.010 mg/kg CD20 TCE IV): No apparent difference
circulating CD20+ B lymphocytes ([6]; 0.010 mg/kg CD20 TCE IV alone or in combination): complete elimination
reduction in peak serum MCP-1 ([6]; 4 hr, 250× combo group, 0.010 mg/kg CD20 TCE IV): ~ 98%
TNF-α and IFN-γ ([6]; CD20 TCE + 0.160 mg/kg, all time points, both animals): not detected above the assay LLOQ
IL-2 response ([6]; any group): No detectable IL-2 response
T cell activation, early (CD69+) and late (CD25+) markers by flow cytometry ([6]; co-administration with 0.010 mg/kg CD20 TCE, 20 day study): pronounced effect on T cell activation
C-reactive protein (CRP) ([6]; combo groups relative to CD20 TCE monotherapy 0.010 mg/kg IV): dose-dependent decrease in CRP

ka [7]: 3.81e+06 M⁻¹ s⁻¹
kd [7]: 0.0624 s⁻¹
Kd [8]: 7.3 nM
ka [8]: 4.04e+06 M⁻¹ s⁻¹
kd [8]: 0.0295 s⁻¹
fast component for the off-rate ([9]; bivalent analyte model): 0.236 s⁻¹
fast component of the on-rate ([9]; bivalent analyte model): 1.29e+06 M⁻¹ s⁻¹
Kd ([9]; immobilized peptide, SS Affinity model): 72.5 nM
Kd [10]: 20.5 nM
ka [10]: 2.64e+06 M⁻¹ s⁻¹
kd [10]: 0.0542 s⁻¹
Kd [11]: 27.4 nM
ka [11]: 3.04e+06 M⁻¹ s⁻¹
kd [11]: 0.0834 s⁻¹
IC50 ([12]; solution competition): 14.7 nM
IC50 [13]: 28.6 nM
Substance: pGlu-DGEEELKGC (N-terminal pyroglutamate; VARIANT 1 Pyroglutamic acid)

ka [8]: 3.21e+06 M⁻¹ s⁻¹
kd [8]: 0.0285 s⁻¹
ka [10]: 4.81e+06 M⁻¹ s⁻¹
kd [10]: 0.0713 s⁻¹
ka [11]: 2.09e+06 M⁻¹ s⁻¹
kd [11]: 0.0734 s⁻¹
reduction in IC50 (FIG. 19) ([12]; FLT3×CD3 TCE and STEAP1×CD3 TCE): negative example
Substance: pGlu-DGTEELKGC ([pGlu]DGTEELKGC)
